Target: His-tagged N-terminal ATP binding domain (amino acid residues 9-236) of HSP90α (Homo sapiens, UniProt P07900)
Experiment: HSP90 inhibitor binding potency: TRF competition binding assay
Settings: competition with biotinylated radicicol
In short: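 His-tagged HSP90α N-domain (residues 9-236) incubated 2 h at room temperature with biotinylated radicicol and increasing compound in 50 mM HEPES, 6 mM MgCl2, 20 mM KCl, 0.1% BSA. Bound tracer captured on streptavidin plates, detected with europium anti-His antibody by time-resolved fluorescence; IC50 derived.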

Row | IC50 (Table 3) | IC50 (Table 4) | Compound
1 | > 10 µM | – | Cc1nc(N)nc2c1C(=O)N(CCCN)[C@@H](c1ccc(F)cc1-c1cccnc1F)C2 [Compound 170, (R)-2-Amino-6-(3-amino-propyl)-7-[4-fluoro-2-(2-fluoro-pyridin-3-yl)-phenyl]-4-methyl-7,8-dihydro-6H-pyrido[4,3-d]pyrimidin-5-one]
2 | < 10 µM | – | COc1cncc(-c2cc(F)ccc2[C@H]2Cc3nc(N)nc(C)c3C(=O)N2CCCN)n1 [Compound 171, (R)-2-Amino-6-(3-amino-propyl)-7-[4-fluoro-2-(6-methoxy-pyrazin-2-yl)-phenyl]-4-methyl-7,8-dihydro-6H-pyrido[4,3-d]pyrimidin-5-one]
3 | < 10 µM | – | COc1cccc(-c2scnc2[C@H]2Cc3nc(N)nc(C)c3C(=O)N2)n1 [Compound 172, (R)-2-Amino-7-[5-(6-methoxy-pyridin-2-yl)-thiazol-4-yl]-4-methyl-7,8-dihydro-6H-pyrido[4,3-d]pyrimidin-5-one]
4 | – | < 10 µM | CCOc1nc(-c2cc(F)ccc2[C@H]2Cc3nc(N)nc(C)c3C(=O)N2)ncc1F [Compound 174, (R)-2-Amino-7-[2-(4-ethoxy-5-fluoro-pyrunidin-2-yl)-4-fluoro-phenyl]-4-methyl-7,8-dihydro-6H-pyrido[4,3-d]pyrimidin-5-one]
5 | – | < 10 µM | COc1cncc(-c2cc(F)ccc2[C@H]2Cc3nc(N)ncc3C(=O)N2)n1 [Compound 175, (R)-2-Amino-7-[4-fluoro-2-(6-methoxy-pyrazin-2-yl)-phenyl]-7,8-dihydro-6H-pyrido[4,3-d]pyrimidin-5-one]
6 | – | < 10 µM | COc1ccccc1-c1cc(F)ccc1[C@H]1Cc2nc(N)ncc2C(=O)N1 [Compound 176, (R)-2-Amino-7-(5-fluoro-2′-methoxy-biphenyl-2-yl)-7,8-dihydro-6H-pyrido[4,3-d]pyrimidm-5-one]
7 | – | < 10 µM | COc1ccc(F)cc1-c1cc(F)ccc1[C@H]1Cc2nc(N)ncc2C(=O)N1 [Compound 177, (R)-2-Amino-7-(5,5′-difluoro-2′-methoxy-biphenyl-2-yl)-7,8-dihydro-6H-pyrido[4,3-d]pyrimidin-5-one]
8 | – | < 10 µM | COc1cc(F)ccc1-c1cc(F)ccc1[C@H]1Cc2nc(N)ncc2C(=O)N1 [Compound 178]
9 | – | ≥ 10 µM | COc1ccc(-c2cc(F)ccc2[C@H]2Cc3nc(N)ncc3C(=O)N2)cc1OC [Compound 179, (R)-2-Amino-7-(5-fluoro-3′,4′-dimethoxy-biphenyl-2-yl)-7,8-dihydro-6H-pyrido[4,3-d]pyrimidin-5-one]
10 | – | < 10 µM | Cc1cccc(-c2cc(F)ccc2[C@H]2Cc3nc(N)ncc3C(=O)N2)c1 [Compound 180, (R)-2-Amino-7-(5-fluoro-3′-methyl-biphenyl-2-yl)-7,8-dihydro-6H-pyrido[4,3-d]pyrimidin-5-one]
11 | – | < 10 µM | Cc1ccccc1-c1cc(F)ccc1[C@H]1Cc2nc(N)ncc2C(=O)N1 [Compound 181, (R)-2-Amino-7-(5-fluoro-2′-methyl-biphenyl-2-yl)-7,8-dihydro-6H-pyrido[4,3-d]pyrimidin-5-one]
12 | – | < 10 µM | Cc1ccc(-c2cc(F)ccc2[C@H]2Cc3nc(N)ncc3C(=O)N2)cc1 [Compound 182, (R)-2-Amino-7-(5-fluoro-4′-methyl-biphenyl-2-yl)-7,8-dihydro-6H-pyrido[4,3-d]pyrimidin-5-one]
13 | – | < 10 µM | Cc1cc(F)ccc1-c1cc(F)ccc1[C@H]1Cc2nc(N)ncc2C(=O)N1 [Compound 183, (R)-2-Amino-7-(5,4′-difluoro-2′-methyl-biphenyl-2-yl)-7,8-fihydro-6H-pyrido[4,3-d]pyrimidm-5-one]
14 | – | ≥ 10 µM | Cc1nc(N)nc2c1C(=O)N[C@@H](c1ccccc1Br)C2 [Compound 184, (R)-2-Amino-7-(2-bromo-phenyl)-4-methyl-7,8-dihydro-6H-pyrido[4,3-d]pyrimidin-5-one]
15 | – | < 10 µM | COc1cnc(-c2cc(F)ccc2[C@H]2Cc3nc(N)nc(C)c3C(=O)N2)nc1OC [Compound 185, (R)-2-Amino-7-[2-(4,5-dimethoxy-pyrimidin-2-yl)-4-fluoro-phenyl]-4-methyl-7,8-dihydro-6H-pyrido[4,3-d]pyrimidin-5-one]
16 | – | < 10 µM | COc1cncc(-c2scnc2[C@H]2Cc3nc(N)nc(C)c3C(=O)N2)n1 [Compound 186, (R)-2-Amino-7-[5-(6-methoxy-pyrazin-2-yl)-thiazol-4-yl]-4-methyl-7,8-dihydro-6H-pyrido[4,3-d]pyrimidin-5-one]
17 | – | < 10 µM | CCOc1cccc(-c2cc(F)ccc2[C@H]2Cc3nc(N)nc(C)c3C(=O)N2)n1 [Compound 187, (R)-2-Amino-7-[2-(6-ethoxy-pyridin-2-yl)-4-fluoro-phenyl]-4-methyl-7,8-dihydro-6H-pyrido[4,3-d]pyrimidin-5-one]
18 | – | < 10 µM | COc1nc(-c2ccccc2[C@H]2Cc3nc(N)nc(C)c3C(=O)N2)cs1 [Compound 188, (R)-2-Amino-7-[2-(2-methoxy-thiazol-4-yl)-phenyl]-4-methyl-7,8-dihydro-6H-pyrido[4,3-d]pyrimidin-5-one]

Row | IC50 (Table 3) | IC50 (Table 4) | Compound
19 | – | < 10 µM | COc1ncc(-c2ccccc2[C@H]2Cc3nc(N)nc(C)c3C(=O)N2)nc1OC [Compound 189, (R)-2-Amino-7-[2-(5,6-dimethoxy-pyrazin-2-yl)-phenyl]-4-methyl-7,8-dihydro-6H-pyrido[4,3-d]pyrimidin-5-one]
20 | – | < 10 µM | COc1nc(-c2cc(F)ccc2[C@H]2Cc3nc(N)nc(C)c3C(=O)N2)ccc1N [Compound 190, (R)-2-Amino-7-[2-(5-amino-6-methoxy-pyridin-2-yl)-4-fluoro-phenyl]-4-methyl-7,8-dihydro-6H-pyrido[4,3-d]pyrimidin-5-o[…]ne]
21 | – | < 10 µM | Nc1ncc2c(n1)C[C@H](c1ccc(F)cc1-c1cccnc1)NC2=O [Compound 191, (R)-2-Amino-7-(4-fluoro-2-pyridin-3-yl-phenyl)-7,8-dihydro-6H-pyrido[4,3-d]pyrimidin-5-one]
22 | – | ≥ 10 µM | COc1ncc(-c2cc(F)ccc2[C@H]2Cc3nc(N)ncc3C(=O)N2)c(OC)n1 [Compound 192, (R)-2-Amino-7-[2-(2,4-dimethoxy-pyrimidin-5-yl)-4-fluoro-phenyl]-7,8-dihydro-6H-pyrido[4,3-d]pyrimidin-5-one]
23 | – | < 10 µM | CCOc1ccnc(-c2cc(F)ccc2[C@H]2Cc3nc(N)nc(C)c3C(=O)N2)n1 [Compound 193, (R)-2-Amino-7-[2-(4-ethoxy-pyrimidin-2-yl)-4-fluoro-phenyl]-4-methyl-7,8-dihydro-6H-pyrido[4,3-d]pyrimidin-5-one]
24 | – | < 10 µM | COc1cncc(-c2ccccc2[C@H]2Cc3nc(N)nc(C)c3C(=O)N2)n1 [Compound 194, (R)-2-Amino-7-[2-(6-methoxy-pyrazin-2-yl)-phenyl]-4-methyl-7,8-dihydro-6H-pyrido[4,3-d]pyrimidin-5-one]
25 | – | < 10 µM | COc1ccnc(-c2cc(F)ccc2[C@H]2Cc3nc(N)nc(C)c3C(=O)N2)n1 [Compound 195, (R)-2-Amino-7-[4-fluoro-2-(4-methoxy-pyrimidin-2-yl)-phenyl]-4-methyl-7,8-dihydro-6H-pyrido[4,3-d]pyrimidin-5-one]
26 | – | < 10 µM | CCOc1nc(-c2cc(F)ccc2[C@H]2Cc3nc(N)nc(C)c3C(=O)N2)cnc1N [Compound 196, (R)-2-Amino-7-[2-(5-amino-6-ethoxy-pyrazin-2-yl)-4-fluoro-phenyl]-4-methyl-7,8-dihydro-6H-pyrido[4,3-d]pyrimidin-5-one]
27 | – | < 10 µM | CCOc1nc(-c2ccccc2[C@H]2Cc3nc(N)nc(C)c3C(=O)N2)cnc1N [Compound 197, (R)-2-Amino-7-[2-(5-amino-6-ethoxy-pyrazin-2-yl)-phenyl]-4-methyl-7,8-dihydro-6H-pyrido[4,3-d]pyrimidin-5-one]
28 | – | < 10 µM | CCc1nc(N)nc2c1C(=O)N[C@@H](c1ccccc1-c1cccc(OC)n1)C2 [Compound 198, (R)-2-Amino-4-ethyl-7-[2-(6-methoxy-pyridin-2-yl)-phenyl]-7,8-dihydro-6H-pyrido[4,3-d]pyrimidin-5-one]
29 | – | < 10 µM | CCc1nc(N)nc2c1C(=O)N[C@@H](c1ccccc1-c1cncc(OC)n1)C2 [Compound 199, (R)-2-Amino-4-ethyl-7-[2-(6-methoxy-pyrazin-2-yl)-phenyl]-7,8-dihydro-6H-pyrido[4,3-d]pyrimidin-5-one]
30 | – | < 10 µM | CCc1nc(N)nc2c1C(=O)N[C@@H](c1ccccc1-c1cnc(N)c(OC)n1)C2 [Compound 200, (R)-2-Amino-7-[2-(5-amino-6-methoxy-pyrazin-2-yl)-phenyl]-4-ethyl-7,8-dihydro-6H-pyrido[4,3-d]pyrimidin-5-one]
31 | – | ≥ 10 µM | CCc1nc(N)nc2c1C(=O)N[C@@H](c1ccccc1-c1csc(OC)n1)C2 [Compound 201, (R)-2-Amino-4-ethyl-7-[2-(2-methoxy-thiazol-4-yl)-phenyl]-7,8-dihydro-6H-pyrido[4,3-d]pyrimidin-5-one]
32 | – | < 10 µM | COc1nc(-c2cc(F)ccc2[C@H]2Cc3nc(N)nc(C)c3C(=O)N2)ncc1Cl [Compound 202, (R)-2-Amino-7-[2-(5-chloro-4-methoxy-pyrimidin-2-yl)-4-fluoro-phenyl]-4-methyl-7,8-dihydro-6H-pyrido[4,3-d]pyrimidin-5-one]
33 | – | < 10 µM | COc1cncc(-c2ccccc2[C@H]2Cc3nc(N)ncc3C(=O)N2)n1 [Compound 203, (R)-2-Amino-7-[2-(6-methoxy-pyrazin-2-yl)-phenyl]-7,8-dihydro-6H-pyrido[4,3-d]pyrimidin-5-one]
34 | – | < 10 µM | COc1nc(-c2ccccc2[C@H]2Cc3nc(N)nc(C)c3C(=O)N2)ncc1F [Compound 204, (R)-2-Amino-7-[2-(5-fluoro-4-methoxy-pyrimidin-2-yl)-phenyl]-4-methyl-7,8-dihydro-6H-pyrido[4,3-d]pyrimidin-5-one]
35 | – | < 10 µM | COc1nc(-c2ccccc2[C@H]2Cc3nc(N)nc(C)c3C(=O)N2)ccc1N [Compound 205, (R)-2-Amino-7-[2-(5-amino-6-methoxy-pyridin-2-yl)-phenyl]-4-methyl-7,8-dihydro-6H-pyrido[4,3-d]pyrimidin-5-one]

Source: US20070123546A1, “2-amino-7,8-dihydro-6H-pyrido[4,3-d]pyrimidin-5-ones” (Chiron Corporation, priority 2005, published 2007)
